The results in this text go back to publication PMC6934184, “Selective DNA-PKcs inhibition extends the therapeutic index of localized radiotherapy and chemotherapy” (The Journal of Clinical Investigation, 2019).

This test deals with T1, EGFR (ErbB1) L861Q (Homo sapiens, UniProt P00533, L861Q).
T1 construct: purchased Thermo Fisher Scientific (Life Technologies) SelectScreen
The experiment in a line: SelectScreen Z'LYTE. Format: biochemical. A digest of the protocol:
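SelectScreen broad panel; activity (Z'LYTE, Adapta) plus binding formats. ATP: Km app for CSF1R Z'LYTE; 10 for CAMK1 Adapta. Readout = % per kinase.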

T1 sequence (P00533 25-1210 L861Q): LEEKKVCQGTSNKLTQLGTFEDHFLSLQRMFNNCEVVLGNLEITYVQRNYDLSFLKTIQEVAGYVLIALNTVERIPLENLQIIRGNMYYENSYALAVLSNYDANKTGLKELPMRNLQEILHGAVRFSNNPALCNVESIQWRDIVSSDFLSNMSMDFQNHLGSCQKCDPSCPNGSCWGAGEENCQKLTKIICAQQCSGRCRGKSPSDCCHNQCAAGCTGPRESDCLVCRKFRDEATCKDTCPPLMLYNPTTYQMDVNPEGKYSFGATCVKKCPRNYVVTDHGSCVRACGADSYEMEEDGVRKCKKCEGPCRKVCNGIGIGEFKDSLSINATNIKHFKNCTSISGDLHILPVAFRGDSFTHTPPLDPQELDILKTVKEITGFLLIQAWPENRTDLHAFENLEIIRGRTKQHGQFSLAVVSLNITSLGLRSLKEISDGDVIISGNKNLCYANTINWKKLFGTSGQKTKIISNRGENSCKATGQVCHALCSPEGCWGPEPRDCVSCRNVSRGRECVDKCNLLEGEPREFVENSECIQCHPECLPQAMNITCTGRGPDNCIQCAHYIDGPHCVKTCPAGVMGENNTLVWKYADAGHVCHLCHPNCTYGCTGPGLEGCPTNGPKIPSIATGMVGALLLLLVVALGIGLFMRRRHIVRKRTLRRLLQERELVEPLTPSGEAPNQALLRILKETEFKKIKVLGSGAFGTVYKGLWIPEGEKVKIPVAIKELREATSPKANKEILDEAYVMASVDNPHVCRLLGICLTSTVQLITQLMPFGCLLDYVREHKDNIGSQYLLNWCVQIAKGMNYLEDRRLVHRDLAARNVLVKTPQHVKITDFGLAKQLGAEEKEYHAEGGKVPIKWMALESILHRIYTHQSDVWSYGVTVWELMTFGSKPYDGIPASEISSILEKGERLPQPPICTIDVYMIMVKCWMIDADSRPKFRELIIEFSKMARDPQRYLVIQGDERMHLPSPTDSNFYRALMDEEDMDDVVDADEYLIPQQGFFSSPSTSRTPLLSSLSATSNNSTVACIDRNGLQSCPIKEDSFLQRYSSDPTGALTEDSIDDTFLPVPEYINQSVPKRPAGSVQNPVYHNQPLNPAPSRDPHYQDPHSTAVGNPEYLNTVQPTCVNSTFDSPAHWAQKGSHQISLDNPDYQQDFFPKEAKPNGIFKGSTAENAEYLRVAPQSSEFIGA

Turning to `CN(C(=O)CN1CCOCC1)c1ccc2sc3c(-c4cccc5c(=O)cc(N6CC7CCC(C6)O7)oc45)cccc3c2c1` [NU5455], the inhibition at 1 µM was found to be 2.2%.
